Laboratory results: the CheMixHub ionic liquid set
± gives the uncertainty stated by the source.

Experiment: xn = mol fraction of the nth substance listed

CCCCCCCCCCCC[N+](C)(C)C.[Br-] + O
Settings | electrical conductivity [S/m] | viscosity [mPa·s]
293.15 K, 100 kPa, x1 = 5.406e-05 | – | 0.982 ± 0.027
293.15 K, 100 kPa, x1 = 0.0001081 | – | 0.984 ± 0.027
293.15 K, 100 kPa, x1 = 0.0001622 | – | 0.985 ± 0.027
293.15 K, 100 kPa, x1 = 0.0002162 | – | 0.987 ± 0.027
293.15 K, 100 kPa, x1 = 0.0002702 | – | 0.989 ± 0.027
293.15 K, 100 kPa, x1 = 0.0003242 | – | 0.991 ± 0.027
293.15 K, 100 kPa, x1 = 0.0003783 | – | 0.993 ± 0.027
293.15 K, 100 kPa, x1 = 0.0004323 | – | 0.995 ± 0.027
293.15 K, 100 kPa, x1 = 0.0004863 | – | 0.999 ± 0.027
293.15 K, 100 kPa, x1 = 0.0005403 | – | 1 ± 0.027
293.15 K, 101 kPa, x1 = 5.406e-05 | – | 0.985 ± 0.06
293.15 K, 101 kPa, x1 = 0.0001081 | – | 0.986 ± 0.06
293.15 K, 101 kPa, x1 = 0.0001622 | – | 0.988 ± 0.06
293.15 K, 101 kPa, x1 = 0.0002162 | – | 0.99 ± 0.06
293.15 K, 101 kPa, x1 = 0.0002702 | – | 0.992 ± 0.06
293.15 K, 101 kPa, x1 = 0.0003242 | – | 0.994 ± 0.06
293.15 K, 101 kPa, x1 = 0.0003783 | – | 0.996 ± 0.06
293.15 K, 101 kPa, x1 = 0.0004323 | – | 0.998 ± 0.06
293.15 K, 101 kPa, x1 = 0.0004863 | – | 1.001 ± 0.061
293.15 K, 101 kPa, x1 = 0.0005403 | – | 1.004 ± 0.061
298 K, 101 kPa, x1 = 0.0001567 | 0.079 ± 0.006 | –
298 K, 101 kPa, x1 = 0.0001676 | 0.084 ± 0.007 | –
298 K, 101 kPa, x1 = 0.000182 | 0.09 ± 0.007 | –
298 K, 101 kPa, x1 = 0.0001874 | 0.093 ± 0.007 | –
298 K, 101 kPa, x1 = 0.0001946 | 0.096 ± 0.008 | –
298 K, 101 kPa, x1 = 0.0002054 | 0.099 ± 0.008 | –
298 K, 101 kPa, x1 = 0.0002144 | 0.105 ± 0.008 | –
298 K, 101 kPa, x1 = 0.0002252 | 0.111 ± 0.009 | –
298 K, 101 kPa, x1 = 0.000236 | 0.115 ± 0.009 | –
298.15 K, 100 kPa, x1 = 5.406e-05 | – | 0.853 ± 0.027
298.15 K, 100 kPa, x1 = 0.0001081 | – | 0.855 ± 0.026
298.15 K, 100 kPa, x1 = 0.0001622 | – | 0.855 ± 0.026
298.15 K, 100 kPa, x1 = 0.0002162 | – | 0.857 ± 0.026
298.15 K, 100 kPa, x1 = 0.0002702 | – | 0.86 ± 0.026
298.15 K, 100 kPa, x1 = 0.0003242 | – | 0.86 ± 0.026
298.15 K, 100 kPa, x1 = 0.0003783 | – | 0.861 ± 0.026
298.15 K, 100 kPa, x1 = 0.0004323 | – | 0.863 ± 0.026
298.15 K, 100 kPa, x1 = 0.0004863 | – | 0.864 ± 0.026
298.15 K, 100 kPa, x1 = 0.0005403 | – | 0.866 ± 0.027
298.15 K, 101 kPa, x1 = 4.307e-05 | 0.02398 ± 5e-05 | –
298.15 K, 101 kPa, x1 = 5.406e-05 | – | 0.853 ± 0.052
298.15 K, 101 kPa, x1 = 5.568e-05 | 0.0306 ± 6e-05 | –
298.15 K, 101 kPa, x1 = 6.865e-05 | 0.03743 ± 8e-05 | –
298.15 K, 101 kPa, x1 = 8.144e-05 | 0.04413 ± 9e-05 | –
298.15 K, 101 kPa, x1 = 9.46e-05 | 0.0508 ± 0.0001 | –
298.15 K, 101 kPa, x1 = 0.0001068 | 0.05714 ± 0.00011 | –
298.15 K, 101 kPa, x1 = 0.0001081 | – | 0.854 ± 0.052
298.15 K, 101 kPa, x1 = 0.0001198 | 0.06364 ± 0.00013 | –
298.15 K, 101 kPa, x1 = 0.0001322 | 0.06995 ± 0.00014 | –
298.15 K, 101 kPa, x1 = 0.0001456 | 0.07656 ± 0.00015 | –
298.15 K, 101 kPa, x1 = 0.0001584 | 0.0829 ± 0.00017 | –
298.15 K, 101 kPa, x1 = 0.0001622 | – | 0.856 ± 0.052
298.15 K, 101 kPa, x1 = 0.0001704 | 0.08876 ± 0.00018 | –
298.15 K, 101 kPa, x1 = 0.0001857 | 0.09628 ± 0.00019 | –
298.15 K, 101 kPa, x1 = 0.0002009 | 0.1036 ± 0.00021 | –
298.15 K, 101 kPa, x1 = 0.0002126 | 0.1093 ± 0.00022 | –
298.15 K, 101 kPa, x1 = 0.0002162 | – | 0.858 ± 0.052
298.15 K, 101 kPa, x1 = 0.0002243 | 0.1151 ± 0.00023 | –
298.15 K, 101 kPa, x1 = 0.0002466 | 0.1259 ± 0.00025 | –
298.15 K, 101 kPa, x1 = 0.0002495 | 0.1271 ± 0.00025 | –
298.15 K, 101 kPa, x1 = 0.0002564 | 0.1305 ± 0.00026 | –
298.15 K, 101 kPa, x1 = 0.0002702 | – | 0.859 ± 0.052
298.15 K, 101 kPa, x1 = 0.0002992 | 0.1437 ± 0.00029 | –
298.15 K, 101 kPa, x1 = 0.000323 | 0.1474 ± 0.00029 | –
298.15 K, 101 kPa, x1 = 0.0003242 | – | 0.861 ± 0.052
298.15 K, 101 kPa, x1 = 0.0003333 | 0.1488 ± 0.0003 | –
298.15 K, 101 kPa, x1 = 0.0003783 | – | 0.862 ± 0.052
298.15 K, 101 kPa, x1 = 0.0004323 | – | 0.864 ± 0.052
298.15 K, 101 kPa, x1 = 0.0004863 | – | 0.861 ± 0.052
298.15 K, 101 kPa, x1 = 0.0005403 | – | 0.867 ± 0.052
303.15 K, 100 kPa, x1 = 5.406e-05 | – | 0.772 ± 0.026
303.15 K, 100 kPa, x1 = 0.0001081 | – | 0.773 ± 0.026
